From US9464326B2, “Total and phosphorylated IL-1 receptor-associated kinase-1 and IL-1 receptor-associated kinase-4 as a biomarker for cancer progression and chemotherapy resistance” (University of Maryland, Baltimore, priority 2012, dated 2016)
Where two headings read alike, the source gives them in different places.

Assays:
patient T-ALL samples = assay: SA-β-gal activity in patient T-ALL samples from treated NSG mice; format: in vivo; settings: p<0.05, FIG. 15C
Description: Analysis of senescence-associated β-galactosidase (SA-β-gal) activity was performed using the 96-Well Cellular Senescence Assay Kit (Cell Biolabs, San Diego, Calif.) as per the manufacturer's protocol. In brief, cells were washed with PBS, lysed with cell lysis buffer, and incubated at 37° C. with SA-β-gal substrate for 1 hour. A quantitative Cellular Senescence Assay Kit (SA-β-gal, Fluorometric) (Cell Biolabs, San Diego, Calif.) was used for more quantitative measurement of SA-β-gal activity by flow cytometry. Briefly, control and treated CCRF-CEM cells were incubated with 1× cell pretreatment solution in culture medium for 2 hrs, and the fluorogenic substrate was then directly added into the culture. After 4 hrs, the cells were washed and analyzed by flow cytometry.
CCRF-CEM (2×10^6) cells were injected intravenously (i.v.) into female NOD.Cg-Prkdc^scid Il2rg^tm1WJl/SzJ IL2RG (NSG) mice (Jackson Laboratories, Bar Harbor, Me.). […] In some experiments mice were injected i.v. with TLR1-TLR2 ligand (2.5 μg) two days after injecting cells. […] The numbers of T-ALL cells in the bone marrow, spleen, liver, and in circulation were determined by staining cells with anti-human CD7 and/or CD5. […]

Malme-3M melanoma cells = assay: Apoptosis by annexin-V/PI flow cytometry in Malme-3M; format: cell-based, human
Description: FIG. 8. IRAK-1,-4 inhibition sensitized melanoma cells to vinblastine-mediated cytotoxicity. (A) A375 and Malme-3M melanoma cells were cultured with or without 2.5 μM of IRAK-1,-4 and in the presence varying concentrations of vinblastine, cisplatin or 5′ Fluorouracil. Forty-eight hours later apoptosis was evaluated by staining cells with annexin-V and propidium iodide and analyzed by flow cytometry. (B) A375 cells were transfected via electroporation with siRNA-IRAK-1,-4. IRAK-1 protein levels were examined by Western blotting. […], A375-psiRNA-hIRAK-1, A375-psiRNA-hIRAK-4, or cells expressing both psiRNA-hIRAK-1 and -4 were cultured in the presence of vinblastine (100 nmol/L) for 48 hours and apoptosis was examined by flow cytometry. (C) A375 melanoma cells were cultured in the presence of vehicle alone (DMSO) or various concentrations of IRAK-1,-4. Forty-eight hours later cell lysates were used to analyze the expression of levels of cleaved PARP or caspase-3 by Western blots. (D) A375 melanoma cells were cultured with or without 2.5 μM of IRAK.-1,-4 and in the presence or absence of vinblastine for 48 hrs. PARP and caspase-3 levels were determined by Western blot.
The TLR1-TLR2 ligand tripalmitoyl-S-(bis(palmitoyloxy)propyl)-Cys-Ser-(Lys)3-Lys (Pam3Cys) was purchased from Invivogen (San Diego, Calif., USA). […] In some experiments cells were treated with the indicated concentrations of IRAK.-1,-4 inhibitor and vinblastine, cisplatin, and 5-fluorouracil (Sigma-Aldrich, St. Louis, Mo.), and apoptosis was quantitated by flow cytometry after staining cells with FITC-labeled annexin-V (BD Pharmingen, San Jose, Calif.) and propidium iodide (PI; Sigma-Aldrich).

IRAK-4 = IRAK-4 (Homo sapiens, UniProt Q9NWZ3); settings: supplier (EMD Millipore) description; cited from earlier work
[1] = system: panel of 27 other kinases; settings: supplier (EMD Millipore) description, cited from earlier work
Hut-78 = assay: Proliferation (3H-thymidine) of Hut-78; format: cell-based, human; settings: 3H-thymidine uptake, 72 h
Source text: CCRF-CEM, CEM/C1, CEM/C2, CEM-C7, Jurkat, Loucy, Molt-4, HSB-2, SUP-T1, Hut 78, HH, Hut 102, MO, and H9 T-leukemia and T-lymphoma cell lines were purchased from the American Type Culture Collection (Manassas, Va., USA). All of the cell lines were initially expanded and cryopreserved within one month of receipt. Cells were typically used for 6 months at which time a fresh vial of cryopreserved cells was used. Total T cells from healthy donors were isolated via negative selection followed by positive selection using a CD3+ selection kit (Invitrogen, Carlsbad, Calif.). T cells were isolated from patients with T-ALL bone marrow or peripheral blood samples containing more than 70% leukemia cells using a CD2+ isolation kit (STEMCELL Technologies, Vancouver, Canada). All tissues were collected under institutional IRB-approved protocols and all participants gave written informed assent/consent. For in vitro experiments, T-ALL cells were cultured in AIM-V medium supplemented with 20% human AB serum in the presence of recombinant human stem cell factor (50 ng/mL; Amgen, Thousand Oaks, Calif.), insulin (20 nM; Sigma-Aldrich, St Louis, Mo., USA) and IL-7 (50 ng/mL; R&D Systems, Minneapolis, Minn., USA). […]
Cells were cultured in a 96-well plate (Corning Costar, Corning, N.Y., USA) with various concentrations of TLR ligands 1-9, starting at 10 μg/ml, in a final volume of 200 ul. […] After this time point, cells were harvested with a Packard Filter-Mate-96 cell harvester (Perkin Elmer, Waltham, Mass., USA) and counted on Packard Top Count-NXT (Perkin Elmer, Waltham, Mass., USA). Results were expressed as average counts per minute (cpm). […] Forty-eight hours later, proliferation (±SD) was determined by ^3H-thymidine incorporation. Alternatively, apoptosis was measured by flow cytometry after staining cells with Annexin-V (BD Pharmingen, San Diego, Calif., USA) and propidium iodide (Sigma). Cell number was counted under microscopy by staining cells with trypan blue. […]

IRAK-4, sequence (Q9NWZ3 whole entry): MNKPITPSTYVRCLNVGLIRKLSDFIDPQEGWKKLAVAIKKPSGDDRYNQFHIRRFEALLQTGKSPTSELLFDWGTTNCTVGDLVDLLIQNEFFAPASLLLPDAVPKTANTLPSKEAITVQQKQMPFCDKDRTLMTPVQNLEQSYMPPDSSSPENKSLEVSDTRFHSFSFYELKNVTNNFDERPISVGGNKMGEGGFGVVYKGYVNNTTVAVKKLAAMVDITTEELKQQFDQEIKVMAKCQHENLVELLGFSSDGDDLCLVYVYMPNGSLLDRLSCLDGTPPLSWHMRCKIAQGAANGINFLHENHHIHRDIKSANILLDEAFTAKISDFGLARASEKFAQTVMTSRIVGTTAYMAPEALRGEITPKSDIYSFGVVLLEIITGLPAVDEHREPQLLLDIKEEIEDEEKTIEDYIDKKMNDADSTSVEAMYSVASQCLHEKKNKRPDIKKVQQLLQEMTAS

| Molecule | SA-β-gal activity (patient T-ALL samples) | apoptosis with 5′-fluorouracil (Malme-3M melanoma cells; Malme3M, IRAK-1,-4 inhibitor with 0-100 nmol/L 5′-fluorouracil) | sensitivity to vinblastine (apoptosis) (Malme-3M melanoma cells; Malme-3M, 2.5 μmol/L IRAK-1,-4 inhibitor with 0-200 nmol/L vinblastine, 48 h) | cisplatin's cytotoxicity (Malme-3M melanoma cells; Malme-3M, IRAK-1,-4 inhibitor with 0-50 nmol/L cisplatin) | inhibition of IRAK-4 (IRAK-4) | activity against a panel of 27 other kinases [1] | activity against a panel of 27 other kinases ([1]; listed as IRAK.-1,-4 inhibitor) | Proliferative effects of TLR ligands (Hut-78) |
| --- | --- | --- | --- | --- | --- | --- | --- | --- |
| O=C(Nc1nc2ccccc2n1CCN1CCOCC1)c1cccc([N+](=O)[O-])c1 [IRAK-1,-4 inhibitor] | increased SA-β-gal activity | appeared to enhance apoptosis | increased sensitivity | did not increase | selectively inhibits | little to no activity | little activity |  |
| tripalmitoyl-S-(bis(palmitoyloxy)propyl)-Cys-Ser-(Lys)3-Lys [Pam3Cysk4] |  |  |  |  |  |  |  | ∘ |
